Measured values as given in article PMC6054636, “Interaction between porous silica gel microcarriers and peptides for oral administration of functional peptides” (Scientific Reports, 2018).
Where no end group is shown, it is not given here.

Columns and labels:
[1] = amino acid hydrophobicity index; cited from earlier work
Excerpt: Rimola et al. reported a review paper on the effect of silica surface features on the adsorption of biomolecules, such as polypeptides. […] This tendency was also obtained in our experiments as described in Fig. 2C. […] All 5 ...

[2] = biological target: T1, pepsin (Sus scrofa, UniProt P00791); experiment: Peptide digestive enzyme stability experiment (SGF with pepsin); assay type: in vitro ADME; details: SGF pH 1.2 with pepsin (0.32 g/100 mL), 60 min, 37 °C, RP-HPLC UV, no addition of pepsin = 100%
T1 construct: purchased WAKO, Japan 161–24482
Procedure: Finally, we investigated whether the heat-treated silica gel used in this study protected the peptides that were adsorbed to them from pepsin degradation. We used DFELEDD with a high score value (Fig. 3D). The peptide was adsorbed to the heat-treated silica gel, incubated for 60 min in simulated gastric fluid containing pepsin, and then transferred to the pH 7.4 buffer that mimics the intestinal environment. […] In contrast, the degradation of the peptide was inhibited under the condition with silica gel and 57.1 ± 3.9% of the peptide was released. This occurred because the peptide was adsorbed to the pore surface of the heat-treated silica gel. Schlipf et al. reported EGFP (2.4 nm diameter × 4.2 nm) protection from proteolytic attack by Pepsin A (7.3 nm × 3.6 nm × 5.4 nm) by the mesoporous silica with 7.3 nm pores. […]
SGF (simulated gastric fluid) has been reported previously. […] To quantify the peptide, 250 μL of solution was injected into the HPLC.
Chromatographic analysis was performed with a HPLC system (JASCO, Japan) equipped with pump (model PU 2086 Plus), UV detector (model MD 4017), and a C18 column (d = 20 mm, L = 250 mm; SHISEIDO, Japan). […] The column was maintained at 30 °C, the flow rate was 5 mL/min, and the eluted peaks were detected by UV absorbance of 220 and 280 nm.

T1 sequence (P00791 60-385): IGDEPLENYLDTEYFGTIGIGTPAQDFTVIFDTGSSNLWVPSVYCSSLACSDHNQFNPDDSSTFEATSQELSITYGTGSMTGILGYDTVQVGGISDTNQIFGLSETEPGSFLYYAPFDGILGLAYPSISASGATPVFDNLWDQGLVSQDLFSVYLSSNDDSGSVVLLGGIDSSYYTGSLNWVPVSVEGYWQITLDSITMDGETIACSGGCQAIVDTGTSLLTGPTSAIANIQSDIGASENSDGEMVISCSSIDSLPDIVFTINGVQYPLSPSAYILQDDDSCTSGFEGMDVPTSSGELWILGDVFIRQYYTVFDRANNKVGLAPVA

Peptide release rate (protection) after pepsin degradation, with heat-treated silica gel ([2]; 0.5 mM peptide mixed with 25 mg/mL heat-treated silica gel, precipitate released in 300 μL PBS pH 7.4, mean ± SD)	Peptide release rate after pepsin degradation, without silica gel ([2]; no silica gel, 0.5 mM peptide, then pH 7.4 PBS)	Compound	Hydrophobicity of amino acid [1]
–	–	N[C@@H](Cc1ccccc1)C(=O)O [F, Phe]	2.8
–	–	CC[C@H](C)[C@H](N)C(=O)O [I]	4.5
–	–	CC(C)[C@H](N)C(=O)O [V]	4.2
57.1 ± 3.9%	< 1.0%	DFELEDD [DFELEDD]	–
